From patent US4390540A, “Imidazoquinazolines having pharmaceutical activity” (Hoffmann-La Roche Inc., priority 1980, dated 1983)
Where two headings read alike, the source gives them in different places.

Experiments:
[1] = tested on: heart frequency; experiment: Heart frequency (tachycardia) in conscious sheep dogs; format: in vivo; conditions: oral
Protocol: (§1) The positive inotropic activity was measured after the oral administration of the test substances to conscious sheep dogs. For this purpose, the animals are provided with an implanted pressure-telemetry system, whereby the pressure receiver is fixed in the left ventricle. The left ventricular pressure is sent from the animal via the implanted radio transmitter and received via a suitable antenna and receiving system, demodulated and amplified. By differentiation of the ascending side of the left ventricular pressure (LVP), there is calculated the maximum pressure increase rate (dLVP/dtmax) which represents the contractility parameter. Simultaneously, the heart frequency is recorded via a cardiotachograph. Under inotropy there are indicated the percentage variation (Δ%) of dLVP/dtmax and the duration of activity in hours (Hrs.). Under tachycardia there are indicated the percentage variations of the heart frequency (Δ%) after administration of the test substance and the duration of activity in hours (Hrs.).

[2] = tested on: Human platelet-rich plasma; experiment: Collagen-induced blood platelet aggregation (aggregometer method of Born); format: cell-based; conditions: 10 min; human platelet-rich citrate plasma, 37° C., 10 minutes incubation, collagen fibrils; read-out: EC50 (collagen-induced blood platelet aggregation, maximum aggregation velocity)
Protocol: The maximum aggregation velocity was taken as the test parameter, and the effective concentration (EC50) was ascertained from dosage-activity curves. Human platelet-rich plasma was obtained by centrifugation from citrated venous blood. The experiments were carried out with suspensions of the test substances in 0.9% sodium chloride. 0.18 ml of citrate plasma was treated with a 10 μl suspension of the test compounds and incubated at 37° C. for 10 minutes, whereupon the aggregation was initiated by the addition of 10 μl of a suspension of collagen fibrils.

[3] = tested on: gastric acid secretion; experiment: Gastric acid secretion inhibition in pylorus-ligated rats (Shay); format: in vivo; conditions: Rattus norvegicus, intraduodenally, female rats, 4 hours
Protocol: The experimental procedure described hereinafter was used to determine the gastric acid secretion-inhibiting activity. More specifically, the pylorus of female rats, which had received no food for 24 hours, but which had received water ad libitum, is ligatured under slight ether narcosis in accordance with Shay et al. [Gastroenterology 5, 43 (1945)]. Immediately thereafter the substance to be tested is administered intraduodenally to the animals. Four hous later the animals are killed, the volume and the acidity of their gastric juice are determined and the values obtained are compared with those of control animals which were treated similarly, but which received no test substance. The ED 50 is that dosage of test substance which brings about a 50% decrease in volume (ED 50 volume) or acidity (ED 50 acidity) of the gastric juice in the treated animals compared with the control animals.

[4] = tested on: left ventricular pressure (LVP); experiment: Positive inotropic activity (dLVP/dtmax) in conscious sheep dogs; format: in vivo; conditions: oral; for change in vivo at 10 mg/kg / change in vivo at 1 mg/kg / change in vivo at 3 mg/kg: Canis lupus familiaris, read-out: Inotropy Δ% (percentage variation of dLVP/dtmax)
Protocol: as §1

SMILES	Heart frequency Hrs. (duration of activity) ([1]; 10 mg/kg) [h]	Heart frequency Δ% (percentage variation) ([1]; 10 mg/kg)	EC50 [2] [µM]	Heart frequency Hrs. (duration of activity) ([1]; 1 mg/kg) [h]	Heart frequency Δ% (percentage variation) ([1]; 1 mg/kg)	Heart frequency Hrs. (duration of activity) ([1]; 3 mg/kg) [h]	Heart frequency Δ% (percentage variation) ([1]; 3 mg/kg)	ED50 ([3]; read-out: ED 50 acidity (50% decrease in acidity of the gastric juice)) [mg/kg]	ED50 ([3]; read-out: ED 50 volume (50% decrease in volume of the gastric juice)) [mg/kg]	Inotropy Hrs (duration of activity) ([4]; 10 mg/kg) [h]	change in vivo at 10 mg/kg ([4]; 10 mg/kg) [%]	Inotropy Hrs (duration of activity) ([4]; 1 mg/kg) [h]	Inotropy Hrs (duration of activity) ([4]; 3 mg/kg) [h]	change in vivo at 1 mg/kg ([4]; 1 mg/kg) [%]	change in vivo at 3 mg/kg ([4]; 3 mg/kg) [%]
Cl.O=C1CN2C(=N1)NCc1c(Cl)cccc12 [6-chloro-4,5-dihydroimidazo[1,2-a]quinazolin-2(1H)-one hydrochloride]	6	+77%	12.3	–	–	–	–	10	15	7	78	–	–	–	–
Cc1cccc2c1N1CC(=O)N=C1NC2.Cl [9-methyl-4,5-dihydroimidazo[1,2-a]quinazolin-2(1H)-one hydrochloride]	–	–	–	5.5	-19%	6	-8%	–	–	–	–	2.5	6.5	27	18
Cc1c(Br)ccc2c1CNC1=NC(=O)CN12.Cl [7-bromo-6-methyl-4,5-dihydroimidazo[1,2-a]quinazolin-2(1H)-one hydrochloride]	8	+59%	35	4	+10%	4	0%	–	–	8	120	2.5	5.5	8	16
CC1C(=O)N=C2NCc3c(ccc(Cl)c3Cl)N21.Cl (stereo not shown) [6,7-dichloro-1-methyl-4,5-dihydroimidazo[1,2-a]quinazolin-2(1H)-one hydrochloride]	–	–	–	–	–	8	+16%	–	–	–	–	–	8	–	48
Cc1c(Cl)ccc2c1CNC1=NC(=O)CN12.Cl [7-chloro-6-methyl-4,5-dihydroimidazo[1,2-a]quinazolin-2(1H)-one hydrochloride]	6	+31%	–	5	+4%	3	+6%	–	–	6	50	6	1	27	7
Cl.O=C1CN2C(=N1)NCc1c2ccc(Cl)c1Cl [6,7-dichloro-4,5-dihydroimidazo[1,2-a]quinazolin-2(1H)-one hydrochloride]	–	–	–	7	+22%	–	–	–	–	–	–	7.5	–	44	–

Second part, led by results:

Heart frequency Hrs. (duration of activity) ([1]; 10 mg/kg) [h]	Heart frequency Δ% (percentage variation) ([1]; 10 mg/kg)	EC50 [2] [µM]	Heart frequency Hrs. (duration of activity) ([1]; 1 mg/kg) [h]	Heart frequency Δ% (percentage variation) ([1]; 1 mg/kg)	Heart frequency Hrs. (duration of activity) ([1]; 3 mg/kg) [h]	Heart frequency Δ% (percentage variation) ([1]; 3 mg/kg)	SMILES	ED50 ([3]; read-out: ED 50 acidity (50% decrease in acidity of the gastric juice)) [mg/kg]	ED50 ([3]; read-out: ED 50 volume (50% decrease in volume of the gastric juice)) [mg/kg]	Inotropy Hrs (duration of activity) ([4]; 10 mg/kg) [h]	change in vivo at 10 mg/kg ([4]; 10 mg/kg) [%]	Inotropy Hrs (duration of activity) ([4]; 1 mg/kg) [h]	Inotropy Hrs (duration of activity) ([4]; 3 mg/kg) [h]	change in vivo at 1 mg/kg ([4]; 1 mg/kg) [%]	change in vivo at 3 mg/kg ([4]; 3 mg/kg) [%]
6.5	+50%	–	–	–	–	–	COc1ccc2c(c1)CNC1=NC(=O)CN12.Cl [7-methoxy-4,5-dihydroimidazo[1,2-a]quinazolin-2(1H)-one hydrochloride]	–	–	7	67	–	–	–	–
–	–	–	3.5	-7%	5	-12%	Cc1cccc2c1CNC1=NC(=O)CN12.Cl [6-methyl-4,5-dihydroimidazo[1,2-a]quinazolin-2(1H)-one hydrochloride]	–	–	–	–	2	4.5	15	32
–	–	–	–	–	2.5	+4%	Cl.O=C1CN2C(=N1)NCc1ccccc12 [4,5-dihydroimidazo[1,2-a]quinazolin-2(1H)-one hydrochloride]	–	–	–	–	–	4	–	79
–	–	–	–	–	1	+6%	Cc1ccc2c(c1)CNC1=NC(=O)CN12.Cl [7-methyl-4,5-dihydroimidazo[1,2-a]quinazolin-2(1H)-one hydrochloride]	–	–	–	–	–	2	–	33
3	+13%	–	–	–	–	–	Cl.O=C1CN2C(=N1)NCc1cc(Cl)ccc12 [7-chloro-4,5-dihydroimidazo[1,2-a]quinazolin-2(1H)-one hydrochloride]	–	–	3.5	17	–	–	–	–
7	+45%	–	5	+47%	6	+20%	COc1ccc2c(c1Cl)CNC1=NC(=O)CN12.Cl [6-chloro-7-methoxy-4,5-dihydroimidazo[1,2-a]quinazolin-2(1H)-one hydrochloride]	–	–	7	60	1	7	10	32
6	+3%	–	–	–	–	–	Cc1ccc2c(c1C)CNC1=NC(=O)CN12.Cl [6,7-dimethyl-4,5-dihydroimidazo[1,2-a]quinazolin-2(1H)-one hydrochloride]	–	–	6	18	–	–	–	–
